Test system: Trypanosoma brucei
Assay: ALAMARBLUE cell viability / growth assay of T. brucei cells
Type: cell-based
Conditions: T. brucei, 72 hours, normalized to DMSO control
Procedure: To determine cell growth rate, WT and two TbRPA1 RNAi KD strains (KD1 and KD2) were seeded at a density of 1×10^5 cells/ml and cultured with or without tetracycline for the induction of RNAi. Cells were counted every 12 hours for 2 days. To determine the viability of TbRPA1-depleted cells, ALAMARBLUE® assay (Thermo Fisher, an established colorimetric technique that detects metabolically active cells) was used. Cells from each time point were incubated with ALAMARBLUE® dye for 4-6 hours and percentage of live cells was determined by measuring resorufin converted from resazurin by reducing environment of live cells. Synergy H1 microplate reader (BioTek) was used with 560/590 nm (excitation/emission) filter settings and Relative Fluorescence Unit (RFU) values were obtained. The percentage of viable cells were calculated from the RFU values.
The initial assessment of JC-229's inhibitory effect on T. brucei cell growth was performed at 50 μM concentration. Trypanosome cells were seeded at 1×10^3 cells/ml density in 180 μl in a 96-well culture plate in triplicate. These cells were incubated with 50 μM JC-229 for 24, 48, and 72 hours. DMSO was used as a vehicle control at 0.0075%. JC-229-treated culture and control cultures were analyzed with the ALAMARBLUE® dye as described above.
To obtain the EC50 value of JC-229, T. brucei cells were seeded at 1×10^3 cells/ml density in 180 μl in a 96-well culture plate in triplicate. These cells were incubated for 72 hours with increasing concentrations of JC-229, (0.5 μM to 50 μM) and cell viability was determined using the ALAMARBLUE® dye as described above.
Trypanosoma brucei cytotoxicity of JC-229 and analogs were measured using ALAMARBLUE® assay (Rampersad, S. N. Multiple applications of ALAMARBLUE® as an indicator of metabolic function and cellular health in cell viability bioassays. Sensors (Basel) 12, 12347-12360 (2012). Trypanosome cells were seeded at 1×10^3 cells/ml density in 180 μl in a 96-well culture plate in triplicate. These cells were incubated with indicated concentration of JC compounds for 72 hours. DMSO was used as a vehicle control at 0.0075%. JC compound-treated cultures were then incubated with ALAMARBLUE® dye for 4-6 hours and percentage of live cells was determined using Synergy H1 microplate reader (BioTek) with 560/590 nm (excitation/emission) filter settings and Relative Fluorescence Unit (RFU) values were obtained. The percentage of viable cells were calculated from the RFU values by normalizing to DMSO treated control. In one embodiment, the inhibitor is characterized in that it provides at least 50%, at least 80% or at least 90% inhibition at a concentration of 5 μM when tested in accordance with the above conditions.

## Cc1ccc(S(=O)(=O)Nc2ccc(Cl)c(Cl)c2)cc1C(=O)Nc1ccc(Cl)c(Cl)c1 [JC-858]
  % Inhibition @2 μM: 13%
  % Inhibition @5 μM: 86%
  % Inhibition @10 μM: 100%

## Cc1ccc(C(=O)Nc2ccc(Cl)c(Cl)c2)cc1S(=O)(=O)NCCCNC(=O)Cc1ccccc1 [JC-934]
  % Inhibition @2 μM: 11%
  % Inhibition @10 μM: 34%

## Cc1ccc(C(=O)N[C@H](Cc2ccccc2)C(N)=O)cc1S(=O)(=O)Nc1ccc(Cl)c(Cl)c1 [JC-861]
  % Inhibition @2 μM: 5%
  % Inhibition @10 μM: 4%

## CC(=O)c1ccc(NS(=O)(=O)c2cc(C(=O)Nc3ccc(Cl)c(Cl)c3)ccc2C)cc1 [JC-909]
  % Inhibition @2 μM: 15%
  % Inhibition @10 μM: 17%

## Cc1ccc(C(=O)Nc2ccc(Cl)c(Cl)c2)cc1S(=O)(=O)NCCN(C)C [JC-871]
  % Inhibition @2 μM: −3%
  % Inhibition @10 μM: 79%

## Cc1ccc(C(=O)Nc2ccc(Cl)c(Cl)c2)cc1S(=O)(=O)NCc1cccc2ccccc12 [JC-887]
  % Inhibition @2 μM: −9%
  % Inhibition @10 μM: 14%

## Cc1ccc(C(=O)Nc2ccc(Cl)c(Cl)c2)cc1S(=O)(=O)NCCCCCCO [JC-898]
  % Inhibition @2 μM: 6%
  % Inhibition @10 μM: 57%

## Cc1ccc(C(=O)Nc2ccc(Cl)c(Cl)c2)cc1S(=O)(=O)N1CCCC(NC(=S)Nc2ccc(C(F)(F)F)cc2)C1 (stereo not drawn) [JC-1008]
  % Inhibition @2 μM: 100%
  % Inhibition @5 μM: 100%

## Cc1ccc(C(=O)Nc2ccc(Cl)c(Cl)c2)cc1S(=O)(=O)N1CCCC(NS(C)(=O)=O)C1 (stereo not drawn) [JC-964]
  % Inhibition @2 μM: −16%
  % Inhibition @5 μM: −23%

## Cc1ccc(C(=O)Nc2ccc(Cl)c(Cl)c2)cc1S(=O)(=O)N1CCC(NC(=O)CCc2ccccc2)CC1 [JC-968]
  % Inhibition @2 μM: 1%
  % Inhibition @5 μM: 5%

## Cc1ccc(C(=O)Nc2ccc(Cl)c(Cl)c2)cc1S(=O)(=O)N1CCOCC1 [JC-885]
  % Inhibition @2 μM: 13%
  % Inhibition @10 μM: 38%

## Cc1ccc(C(=O)Nc2ccc(Cl)c(Cl)c2)cc1S(=O)(=O)NCCNS(=O)(=O)c1cccc(Br)c1 [JC-994]
  % Inhibition @2 μM: −17%
  % Inhibition @5 μM: 61%

## Cc1ccc(C(=O)Nc2ccc(Cl)c(Cl)c2)cc1S(=O)(=O)Nc1ccc([N+](=O)[O-])cc1N [JC-892]
  % Inhibition @2 μM: 13%
  % Inhibition @10 μM: 1%

## Cc1ccc(C(=O)Nc2ccc(Cl)c(Cl)c2)cc1S(=O)(=O)N1CCN(C)CC1 [JC-916]
  % Inhibition @2 μM: −2%
  % Inhibition @10 μM: 36%

## Cc1cc(NS(=O)(=O)c2cc(C(=O)Nc3ccc(Cl)c(Cl)c3)ccc2C)n[nH]1 [JC-894]
  % Inhibition @2 μM: −4%
  % Inhibition @10 μM: 2%

## Cc1ccc(C(=O)Nc2ccc(Cl)c(Cl)c2)cc1S(=O)(=O)NCCNC(=S)Nc1ccc(Cl)c(Cl)c1 [JC-1002]
  % Inhibition @2 μM: 34%
  % Inhibition @5 μM: 100%

## Cc1ccc(C(=O)Nc2ccc(Cl)c(Cl)c2)cc1S(=O)(=O)N1CCC(NC(=O)Cc2ccccc2)CC1 [JC-967]
  % Inhibition @2 μM: 15%
  % Inhibition @5 μM: −24%

## Cc1ccc(C(=O)Nc2ccc(Cl)c(Cl)c2)cc1S(=O)(=O)N1CCC(NS(C)(=O)=O)CC1 [JC-969]
  % Inhibition @2 μM: 18%
  % Inhibition @5 μM: −4%

## Cc1ccc(C(=O)Nc2ccc(Cl)c(Cl)c2)cc1S(=O)(=O)C1CCC(NC(=O)OC(C)(C)C)CC1 (stereo not drawn) [JC-924]
  % Inhibition @2 μM: −2%
  % Inhibition @5 μM: 99.4%
  % Inhibition @10 μM: 100%

## Cc1ccc(C(=O)N2CCOCC2)cc1S(=O)(=O)Nc1ccc(Cl)c(Cl)c1 [JC-867]
  % Inhibition @2 μM: −14%
  % Inhibition @10 μM: 31%

## Cc1ccc(C(=O)Nc2ccc(Cl)c(Cl)c2)cc1S(=O)(=O)NCCO [JC-872]
  % Inhibition @2 μM: −13%
  % Inhibition @10 μM: 21%

## Cc1ccc(C(=O)Nc2ccc(Cl)c(Cl)c2)cc1S(=O)(=O)NC(Cc1ccccc1)C(N)=O (stereo not drawn) [JC-870]
  % Inhibition @2 μM: −34%
  % Inhibition @10 μM: 49%

## Cc1ccc(C(=O)Nc2ccc(Cl)c(Cl)c2)cc1S(=O)(=O)Nc1cc[nH]n1 [JC-902]
  % Inhibition @2 μM: 14%
  % Inhibition @10 μM: 56%

## Cc1ccc(C(=O)Nc2ccc(Cl)c(Cl)c2)cc1S(=O)(=O)NC(CO)(CO)CO [JC-893]
  % Inhibition @2 μM: 2%
  % Inhibition @10 μM: −5%

## Cc1ccc(C(=O)Nc2ccc(Cl)c(Cl)c2)cc1S(=O)(=O)NCCN.O=C(O)C(F)(F)F [JC-918]
  % Inhibition @2 μM: −20%
  % Inhibition @10 μM: 56%

## Cc1ccc(C(=O)Nc2ccc(Cl)c(Cl)c2)cc1S(=O)(=O)NCCNC(=S)Nc1ccc(C(F)(F)F)cc1 [JC-1003]
  % Inhibition @2 μM: 0%
  % Inhibition @5 μM: 80%

## Cc1ccc(C(=O)Nc2ccc(Cl)c(Cl)c2)cc1S(=O)(=O)N1CCCC(NC(=O)OC(C)(C)C)C1 (stereo not drawn) [JC-928]
  % Inhibition @2 μM: 15%
  % Inhibition @5 μM: 99.6%
  % Inhibition @10 μM: 100%

## Cc1ccc(C(=O)Nc2ccc(Cl)c(Cl)c2)cc1S(=O)(=O)NCc1nc2ccccc2[nH]1.O=C(O)C(F)(F)F [JC-905]
  % Inhibition @2 μM: 8%
  % Inhibition @10 μM: 10%

## COc1ccc(NC(=S)NCCNS(=O)(=O)c2cc(C(=O)Nc3ccc(Cl)c(Cl)c3)ccc2C)cc1 [JC-999]
  % Inhibition @2 μM: −7%
  % Inhibition @5 μM: −6%

## Cc1ccc(C(=O)Nc2ccc(Cl)c(Cl)c2)cc1S(=O)(=O)C1CCNCC1.O=C(O)C(F)(F)F [JC-911]
  % Inhibition @2 μM: 11%
  % Inhibition @10 μM: 25%

## Cc1ccc(C(=O)Nc2ccc(Cl)c(Cl)c2)cc1S(=O)(=O)N1CCC(NC(=S)Nc2ccccc2F)CC1 [JC-1018]
  % Inhibition @2 μM: 100%
  % Inhibition @5 μM: 100%

## Cc1ccc(C(=O)Nc2ccc(Cl)c(Cl)c2)cc1S(=O)(=O)NCCNS(=O)(=O)c1ccc(Br)cc1 [JC-923]
  % Inhibition @2 μM: 2%
  % Inhibition @5 μM: 100.9%
  % Inhibition @10 μM: 100%

## Cc1ccc(C(=O)Nc2ccc(Cl)c(Cl)c2)cc1S(=O)(=O)Nc1ccncc1 [JC-915]
  % Inhibition @2 μM: −11%
  % Inhibition @10 μM: 6%

## Cc1ccc(C(=O)Nc2ccc(Cl)c(Cl)c2)cc1S(=O)(=O)NC1CC(N)C1 (stereo not drawn) [JC-957]
  % Inhibition @2 μM: −30%
  % Inhibition @5 μM: 84%

## Cc1ccc(C(=O)Nc2ccc(Cl)c(Cl)c2)cc1S(=O)(=O)N1CCC(NC(=O)c2ccccc2)CC1 [JC-966]
  % Inhibition @2 μM: 13%
  % Inhibition @5 μM: 0%

## Cc1ccc(C(=O)Nc2ccc(Cl)c(Cl)c2)cc1S(=O)(=O)C1CCC(NC(=O)Cc2ccccc2)CC1 (stereo not drawn) [JC-926]
  % Inhibition @2 μM: −8%
  % Inhibition @5 μM: 28.9%
  % Inhibition @10 μM: 100%

## Cc1ccc(C(=O)Nc2ccc(Cl)c(Cl)c2)cc1S(=O)(=O)NCc1ccccc1 [JC-857]
  % Inhibition @2 μM: −5%
  % Inhibition @10 μM: 14%

## Cc1ccc(C(=O)Nc2ccc(Cl)c(Cl)c2)cc1S(=O)(=O)NCCCNC(=O)OC(C)(C)C [JC-932]
  % Inhibition @2 μM: 7%
  % Inhibition @10 μM: 73%
